According to US20060276381A1, “Remedy for diabetes” (Chugai Seiyaki Kabushiki Kaisha, priority 2002, published 2006):
No end group written: not given here.

What was measured:
[1] = system: food-deprived mice; test: Feeding tests in food-deprived lean mice; format: in vivo; details: for Food intake: IP administration, food-deprived mice
[2] = system: ob/ob mice; test: Feeding test in ob/ob mice; format: in vivo; details: IP
[3] = system: mice with diet-induced obesity; test: Feeding test in mice with diet-induced obesity; format: in vivo; details: IP, acute
[4] = target: T1, GHS-R in the brain (Mus musculus, UniProt Q99P50); test: Simultaneous administration of ghrelin (IP) and [D-Lys-3]-GHRP-6 (ICV), food intake; format: in vivo, mice; details: free access to food
T1 construct: possibility that ghrelin would act through GHS-R in the brain; from tissue; host or cells: brain of living mice (ICV administration)
T1 sequence (Q99P50 whole entry): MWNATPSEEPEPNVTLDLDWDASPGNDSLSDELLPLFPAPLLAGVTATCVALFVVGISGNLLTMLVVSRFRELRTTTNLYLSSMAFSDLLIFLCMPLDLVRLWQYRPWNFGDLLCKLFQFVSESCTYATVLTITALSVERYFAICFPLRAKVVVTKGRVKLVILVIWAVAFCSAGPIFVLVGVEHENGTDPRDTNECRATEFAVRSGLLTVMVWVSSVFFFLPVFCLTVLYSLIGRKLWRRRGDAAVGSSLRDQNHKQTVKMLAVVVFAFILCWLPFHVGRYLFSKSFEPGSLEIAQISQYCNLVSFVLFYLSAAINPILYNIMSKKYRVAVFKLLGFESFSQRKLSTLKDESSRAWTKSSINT
Method: For ICV administration, the mice were anesthetized with sodium pentobarbital (80-85 mg/kg IP) and placed in a stereotaxic instrument (SR-6, Narishige, Tokyo, Japan) seven days before the experiments. A hole was made in each skull by using a needle inserted 0.9 mm lateral to the central suture and 0.9 mm posterior to the bregma. A 24-gauge cannula (Safelet-Cas, Nipro, Osaka, Japan) beveled at one end over a distance of 3 mm was implanted into the third cerebral ventricle for ICV administration. The cannula was fixed to the skull with dental cement and capped with silicon. A 27-gauge injection insert was attached to a microsyringe by PE-20 tubing.
Before feeding tests, mice were food deprived for 16 hours with free access to water, except during an experiment on the effect of co-administration of [D-Lys-3]-GHRP-6 and ghrelin on food intake, in which mice were given free access to food and water. Food intake was measured by subtracting uneaten food from the initially pre-measured food at 20 minutes, 1, 2 and 4 hours after administration.
In order to evaluate the possibility that ghrelin would act through GHS-R in the brain, the inventors examined the effects of simultaneous administration of ghrelin and [D-Lys-3]-GHRP-6 on food intake.

[5] = system: ob/ob obese mice; test: Repeated IP administration of [D-Lys-3]-GHRP-6 in ob/ob obese mice; format: in vivo
[6] = system: gastric emptying rate in mice; test: Gastric emptying; format: in vivo; details: IP, one hour after administration
Method: Before the experiments on gastric emptying, mice were food deprived for 16 hours with free access to water. The fasted mice had free access to pre-weighed pellets for one hour and were then administered [D-Lys-3]-GHRP-6. The mice were deprived of food again for one or two hours after administration. Food intake was measured by weighing the uneaten pellets. Mice were killed by cervical dislocation two or three hours after the start of the experiments. Immediately after that, the stomach was exposed by laparotomy, quickly ligated at both the pylorus and cardia, then removed, and its dry content was weighed. Gastric emptying was calculated according to the following formula: gastric emptying (%)={1−(dry weight of food recovered from the stomach/weight of food intake)}×100. (8) Repeated Administration

[7] = rat des-Gln14-ghrelin; cited from earlier work
[8] = system: pituitary gland cells; details: primary culture of pituitary gland cells; cited from earlier work
[9] = target: GHS-R (Rattus norvegicus, UniProt O08725); details: CHO cells having GHS-R expressed, chemically synthesized ghrelin; cited from earlier work
Sequence of GHS-R (O08725 whole entry): as the sequence (Q99P50 whole entry) above, with S30P, S249A counted along it

[10] = system: lean mice under a high-fat diet
Method: Male mice of the ddy strain (34-37 g, JAPAN SLC, Shizuoka, Japan) and obese (ob/ob) C57BL/6J mice (68-74 g, Shionogi Co., Ltd., Shiga, Japan) were used. They were individually housed in a regulated environment (22±2° C., 55±10% humidity, 12:12 hour light:dark cycle with light on at 7:00 AM). Mice received a standard diet containing 12% of total energy as fat or a high-fat diet containing 45% of total energy as fat (CLEA Japan, INC., Tokyo, Japan). Food and water were available ad lib except as otherwise indicated. All experiments were approved by Kobe University animal care committee.
[D-Lys-3]-GHRP-6, [D-Arg-1, D-Phe-5, D-Trp-7, 9, Leu-11] substance P and rat ghrelin were purchased from BACHEM CALIFORNIA INC. (Torrance, Calif., USA), NEOSYSTEM (Strasbourg, France) and Peptide Institute (Osaka, Japan), respectively. Just before administration, each drug was diluted in 4 μl of artificial cerebrospinal fluid (ACSF) for intra-third cerebroventricular (ICV) administration or in 100 μl of physiological saline for intraperitoneal (IP) administration. Results are expressed as mean value±s.e.m. Analysis of variance(ANOVA) followed by Bonferroni's t test was used to assess the differences among groups. P<0.05 was considered to be statistically significant.
(§1) Repeated IP administrations were continued for five days in lean mice under a high-fat diet or a standard diet, and for six days in […] obese mice under a standard diet, respectively. The mice were given the administration at 7:00 AM and 19:00 PM. Food intake and body weight were measured daily. Serum was separated from blood obtained from the orbital sinus under ether anesthesia at the end of the experiment (eight hours after removal of food and the final IP administration). Mice were killed by cervical dislocation. Immediately after that, the epididymal fat pad mass assessed as white adipose tissue (WAT) and the gastrocnemius muscle were removed and weighed. Blood glucose was measured by the glucose oxidase method. Serum insulin and free fatty acids (FFA) were measured by enzyme immunoassay and enzymatic method (EIKEN CHEMICAL CO., LTD., Tokyo, Japan), respectively. Serum triglycerides and total cholesterol were measured by an enzymatic method (Wako Pure Chemical Industries, Ltd., Tokyo, Japan).
(§2) Subsequently, mRNA levels of leptin, adiponectin and resistin in WAT were assessed.

[11] = system: rats; details: rats in vivo; cited from earlier work
[12] = system: leptin and resistin mRNA in WAT; details: repeated IP administrations of ghrelin
Method: as §1, §2

[13] = 20 nmol IP every 12 hours for 6 days
[14] = 200 nmol IP every 12 hours for 6 days
[15] = HF diet, every 12 hours for 5 days, lean mice, mean ± s.e.m.
[16] = IP 3 nmol/mouse twice daily for five days
[17] = IP 3 nmol/mouse twice daily for five days, high-fat diet

[D-Arg-1, D-Phe-5, D-Trp-7, 9, Leu-11] substance P
Food intake [1]: significantly reduced food intake in a dose-dependent manner

[D-Lys-3]-GHRP-6
Food intake [2]: significantly reduced food intake in ob/ob mice | Feeding behavior ([1]; ICV administration): potent decrease in feeding behavior | Food intake [1]: significantly reduced food intake in a dose-dependent manner | Body weight gain [3]: resulting decrease in body weight gain | Food intake [3]: decreased potently | Effect on feeding induced by IP administration of ghrelin ([4]; [D-Lys-3]-GHRP-6 ICV): abolished the stimulatory effects on the feeding | Cholesterol [5, 13]: 219.0 ± 11.24 mg/dL | Fat pad mass (epididymal) [5, 13]: 0.897 ± 0.169 g | Food intake [5, 13]: 4.527 ± 0.261 g/day | Free fatty acids [5, 13]: 2.036 ± 0.121 meq/l | Glucose (blood) [5, 13]: 217.3 ± 27.90 mg/dL | Insulin [5, 13]: 41.61 ± 10.85 ng/mL | Skeletal muscle (gastrocnemius) [5, 13]: 0.314 ± 0.009 g | Triglycerides [5, 13]: 38.57 ± 3.551 mg/dL | Cholesterol [5, 14]: 228.4 ± 21.84 mg/dL | Fat pad mass (epididymal) [5, 14]: 0.860 ± 0.086 g | Food intake [5, 14]: 4.285 ± 0.298 g/day | Free fatty acids [5, 14]: 1.646 ± 0.078 meq/l | Glucose (blood) [5, 14]: 134.9 ± 19.47 mg/dL | Insulin [5, 14]: 36.54 ± 8.695 ng/mL | Skeletal muscle (gastrocnemius) [5, 14]: 0.326 ± 0.013 g | Triglycerides [5, 14]: 41.14 ± 5.990 mg/dL | Blood glucose concentrations ([5]; repeated administrations): significantly lowered | Body weight gain ([5]; repeated administrations): significantly lowered | Muscle weight ([5]; repeated administrations): without reducing the muscle weight | Reduction of FFA levels compared with physiological saline-treated ob/ob mice ([5]; repeated administrations): 24% | Gastric emptying rate [6]: significant decrease in the gastric emptying rate

des-Gln14-ghrelin: ghrelin analog in which Gln 14 in ghrelin is deleted (GSSFLSPEHQKAQRKESKKPPAKLQPR; ends and bridges not checked; UniProt Q9QYH7 24-51, looked up, variant Q14*)
Growth hormone releasing activity relative to ghrelin [7]: the same intensity of growth hormone releasing activity

ghrelin
Growth hormone release [8]: activity of releasing growth hormone | Feeding after IP ghrelin [4]: stimulatory effects on the feeding | Amount having the activity of elevating intracellular Ca++ [9]: nanomolar order | Calorie intake [10, 15]: 25.94 ± 2.562 kcal/day | Cholesterol [10, 15]: 224.8 ± 19.69 mg/dL | Fat pad mass (epididymal) [10, 15]: 1.202 ± 0.175 g | Free fatty acids [10, 15]: 1.636 ± 0.047 meq/l | Glucose (blood) [10, 15]: 160.5 ± 8.977 mg/dL | Insulin [10, 15]: 2.520 ± 0.945 ng/mL | Skeletal muscle (gastrocnemius) [10, 15]: 0.340 ± 0.005 g | Triglycerides [10, 15]: 32.80 ± 7.965 mg/dL | Fat pad mass increase compared with saline-treated mice fed high-fat diet [10, 16]: 125% | Fat pad mass increase compared with saline-treated mice fed standard diet [10, 16]: 49% | Blood glucose concentrations [10, 17]: moderate increase | Body weight gain [10, 17]: increased significantly | Daily energy intake [10, 17]: concomitant increase | Serum cholesterol level [10, 17]: also increased | Serum insulin level [10, 17]: also increased | Skeletal muscle weight [10, 17]: did not show any increase in weight | Growth hormone in the blood [11]: elevates growth hormone in the blood | Leptin mRNA expression in WAT [12]: increased | Resistin mRNA expression in WAT [12]: reducing
